According to publication PMC10661964 (Current Drug Metabolism, 2023):
pIC50: −log10 of the molar value.

Columns and labels:
[1] = Quantification of nifurtimox and metabolites in human urine (LC-HRMS); format: in vivo; settings: for AE,urine(0–24h), fasted patients: mean of 6 fasted patients with Chagas disease; for AE,urine(0–24h), fasted patients / AE,urine(0–24h), fed patients: single oral 120 mg nifurtimox; for AE,urine(0–24h), fed patients: mean of 6 fed patients with Chagas disease
Method: Urine samples were collected from fasted and fed patients pre-dose (0 h) and at four post-dose intervals (0-4, 4-8, 8-12, and 12-24 h) and stored frozen until required. For analysis, urine samples were thawed at room temperature and homogenized by vortex mixing. […] Equal volumes (75 µL) of an internal standard solution of [^2H8]-nifurtimox dissolved in water (10 µg/mL) were added to each urine, calibration, or control sample and mixed thoroughly. Samples from 6 patients were then analyzed using liquid chromatography-high-resolution mass spectrometry (LC-HRMS) with a 1290 Infinity LC system equipped with a diode array detector and an Orbitrap Fusion™ Lumos™ Tribrid™ HRMS (Thermo Fisher Scientific, Bremen, Germany) with a heated electrospray ionization source. For quantification, the LC conditions were as described above for analysis of rat plasma, and the HRMS parameters were: mass range, 120-600 Da in full scan mode and all ion fragmentation in positive ionization mode; resolution, 240,000; ion source voltage, 3500 V; capillary temperature, 300°C; source temperature, 60°C.
The system was calibrated using the relative peak area as a function of concentration, which was obtained by linear regression. Quantification was performed on a mass basis (μg/mL), with the final calculation for the percentage of dose excreted in urine made on a molar basis to account for the substantial differences (up to ~2.5-fold) in the molecular masses of the compounds of interest. The analytical precision for all analytes was in the range of 1.1% to 4.4%, with an accuracy of 94% to 107%. All concentrations in μg/mL were back-calculated to nmol/mL, and these concentrations were then used to calculate a total molar amount based on the urine volume collected during each interval.

[2] = target: T1, OAT1 (Homo sapiens, UniProt Q4U2R8); test: Uptake transporter inhibition; format: in vitro ADME; settings: probe substrate p-aminohippuric acid
T1 sequence (Q4U2R8 1-563): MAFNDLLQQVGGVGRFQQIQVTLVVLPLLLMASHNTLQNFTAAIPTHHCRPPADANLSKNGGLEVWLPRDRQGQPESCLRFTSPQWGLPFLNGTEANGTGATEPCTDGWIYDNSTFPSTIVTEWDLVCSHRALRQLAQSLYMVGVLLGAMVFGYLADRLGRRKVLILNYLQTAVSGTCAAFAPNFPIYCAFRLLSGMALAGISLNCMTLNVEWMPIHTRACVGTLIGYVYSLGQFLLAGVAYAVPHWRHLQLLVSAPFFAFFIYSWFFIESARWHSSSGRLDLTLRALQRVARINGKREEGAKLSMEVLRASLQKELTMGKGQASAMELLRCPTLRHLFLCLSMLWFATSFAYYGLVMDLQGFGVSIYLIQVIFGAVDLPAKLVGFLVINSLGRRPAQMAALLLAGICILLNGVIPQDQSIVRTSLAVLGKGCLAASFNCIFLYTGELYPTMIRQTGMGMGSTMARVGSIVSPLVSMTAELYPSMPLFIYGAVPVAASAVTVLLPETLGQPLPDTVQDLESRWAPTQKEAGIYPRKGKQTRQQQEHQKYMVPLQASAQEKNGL
Text: (§1) The inhibition of cytochrome P450 (CYP) isoforms and a range of cellular transporters (except multidrug and toxin extrusion [MATE] proteins), as well as the induction of CYP isoforms were investigated using previously described methods.

[3] = target: T2, OAT3 (Homo sapiens, UniProt Q8TCC7); test: Uptake transporter inhibition; format: in vitro ADME; settings: probe substrate estrone-3-sulphate
T2 sequence (Q8TCC7 1-542): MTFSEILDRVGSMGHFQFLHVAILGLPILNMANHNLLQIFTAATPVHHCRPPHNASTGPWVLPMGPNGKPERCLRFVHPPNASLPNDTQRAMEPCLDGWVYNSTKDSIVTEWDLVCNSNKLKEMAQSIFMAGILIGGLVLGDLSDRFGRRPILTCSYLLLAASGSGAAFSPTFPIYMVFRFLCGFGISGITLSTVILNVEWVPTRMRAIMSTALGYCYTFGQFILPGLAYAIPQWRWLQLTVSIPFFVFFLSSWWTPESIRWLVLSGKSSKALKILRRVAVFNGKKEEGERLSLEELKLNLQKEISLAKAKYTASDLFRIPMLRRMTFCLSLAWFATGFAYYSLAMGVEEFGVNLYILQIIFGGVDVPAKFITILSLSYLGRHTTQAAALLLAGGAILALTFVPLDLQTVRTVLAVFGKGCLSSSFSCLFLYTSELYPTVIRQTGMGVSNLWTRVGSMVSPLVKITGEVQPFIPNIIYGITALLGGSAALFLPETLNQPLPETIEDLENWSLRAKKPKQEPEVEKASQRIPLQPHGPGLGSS
Text: as §1

[4] = target: T3, OCT2 (Homo sapiens, UniProt O15244); test: Uptake transporter inhibition; format: in vitro ADME; settings: probe substrate 1-methyl-4-phenylpyridinium
T3 sequence (O15244 1-555): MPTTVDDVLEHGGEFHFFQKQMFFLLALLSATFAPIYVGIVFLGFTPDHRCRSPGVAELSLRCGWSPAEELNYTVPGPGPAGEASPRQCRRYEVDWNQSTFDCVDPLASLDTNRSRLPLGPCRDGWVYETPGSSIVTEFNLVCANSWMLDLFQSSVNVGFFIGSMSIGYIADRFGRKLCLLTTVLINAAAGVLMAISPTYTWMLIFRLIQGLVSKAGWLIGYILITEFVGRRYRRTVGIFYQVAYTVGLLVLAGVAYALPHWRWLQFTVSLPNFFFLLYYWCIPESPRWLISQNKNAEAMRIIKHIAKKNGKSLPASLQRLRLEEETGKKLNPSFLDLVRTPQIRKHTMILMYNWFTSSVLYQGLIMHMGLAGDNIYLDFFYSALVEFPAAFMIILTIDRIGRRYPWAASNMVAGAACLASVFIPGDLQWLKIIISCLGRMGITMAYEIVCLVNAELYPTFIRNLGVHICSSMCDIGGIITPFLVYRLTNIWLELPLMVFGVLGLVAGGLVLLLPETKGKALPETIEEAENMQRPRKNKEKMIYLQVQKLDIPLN
Text: as §1

Row | SMILES | AE,urine(0–24h), fasted patients [1] | AE,urine(0–24h), fed patients [1] | pIC50 [2] | pIC50 [3] | pIC50 [4] | unchanged nifurtimox in urine, on average ([1]; fed and fasted patients, single oral 120 mg)
1 | CC1CS(=O)(=O)CCN1n1cc(SCC(N)C(=O)O)ccc1=O (stereo not shown) [M-4] | 5.9 % of dose | 12.3 % of dose | < 5.30 | < 5.30 | < 5.30 | –
2 | CC1CS(=O)(=O)CCN1N (stereo not shown) [M-6] | 13.7 % of dose | 20.8 % of dose | < 4.52 | < 4.52 | < 4.52 | –
3 | CC1CS(=O)(=O)CCN1/N=C/c1ccc([N+](=O)[O-])o1 (stereo not shown) [Nifurtimox, (E)-N-(3-methyl-1,1-dioxo-1,4-thiazinan-4-yl)-1-(5-nitrofuran-2-yl) methanimine, reference compound] | 0.03 % of dose | 0.07 % of dose | < 4.70 | < 4.70 | < 4.70 | less than 0.1 % of the administered dose
